# Reference: ChEMBL document CHEMBL5316313, “Discovery of Novel 3-Phenylpiperidine Derivatives Targeting the β-Catenin/B-Cell Lymphoma 9 Interaction as a Single Agent and in Combination with the Anti-PD-1 Antibody for the Treatment of Colorectal Cancer” (J Med Chem, 2023)
# Activity calls are given as the source filed them. No cut-off for these calls is given here.
# Tests used:
# [1] = Half life in Sprague-Dawley rat at 21 mg/kg, ip and measured upto 24 hrs by LC-MS analysis; assay type: ADME, organism-based; settings: in vivo
# HEK293 [2] = experiment: Antiproliferative activity against Wnt-independent human HEK293 cells assessed as cell growth inhibition at 40 uM incubated for 48 hrs by CellTiter-Glo assay; assay type: functional, cell-based
# HEK293 [3] = experiment: Induction of apoptosis in Wnt-independent human HEK293 cells assessed as early apoptotic cells at 20 uM incubated for 24 hrs by Annexin V-Alexa Fluor 647/PI staining based flow cytomtery (Rvb=17.4%); assay type: functional
# CT26 [4] = experiment: Synergistic antitumor activity in mouse CT26 cells xenografted in BALB/c mouse assessed as decrease in Foxp3 expression in Treg tumor cells at 30 mg/kg, ip QD in presence of anti-PD-1 antibody cotreatment at 10 mg/kg,ip BIW by qRT-PCR analysis; assay type: functional, organism-based
# CT26 [5] = experiment: Induction of apoptosis in Wnt-dependent mouse CT26 cells assessed as early apoptotic cells at 20 uM incubated for 24 hrs by Annexin V-Alexa Fluor 647/PI staining based flow cytomtery (Rvb=18.3%); assay type: functional
# HEK293 [6] = experiment: Induction of apoptosis in Wnt-independent human HEK293 cells assessed as viable cells at 20 uM incubated for 24 hrs by Annexin V-Alexa Fluor 647/PI staining based flow cytomtery (Rvb=70.5%); assay type: functional; settings: read-out: Activity
# [7] = Toxicity in BALB/c mouse xenografted with mouse CT26 cells assessed as adverse effect at 30 mg/kg, ip QD and measured upto 9 days; assay type: organism-based; settings: in vivo, 216 h, time < 9 day
# CT26 [8] = experiment: Synergistic antitumor activity in mouse CT26 cells xenografted in BALB/c mouse assessed as decrease in Foxp3-positive Treg cells in TIME tumor cells at 30 mg/kg, ip QD in presence of anti-PD-1 antibody cotreatment at 10 mg/kg,ip BIW by flow cytomtery; assay type: functional, organism-based
# HCT-116 [9] = experiment: Induction of apoptosis in Wnt-dependent human HCT-116 cells assessed as late apoptotic cells at 10 uM incubated for 24 hrs by Annexin V-Alexa Fluor 647/PI staining based flow cytomtery (Rvb=14.7%); assay type: functional
# [10] = Toxicity in BALB/c mouse xenografted with mouse CT26 cells assessed as pathological changes in bone marrow at 30 mg/kg, ip QD in presence of anti-PD-1 antibody cotreatment at 10 mg/kg,ip BIW by hematoxylin and eosin staining based microscopic analysis; assay type: organism-based; settings: in vivo
# HCT-116 [11] = experiment: Cytotoxicity against Wnt-dependent human HCT-116 cells assessed as reduction in cell viability at 10 to 20 uM by LDH release assay; assay type: toxicity, cell-based; settings: hct-116, 20 µM, dose 10-20 µM
# [12] = Microsomal stability in human liver microsomes assessed as intrinsic clearance at […] and measured upto 60 mins by LC-MS/MS analysis; assay type: ADME, Microsome; settings: read-out: CLH
# CT26 [13] = settings: Mus musculus, BALB/c, dose 30.0 mg/kg, route ip
# Description: In vivo inhibition of Wnt signaling pathway in mouse CT26 cells implanted in BALB/c mouse assessed as reduction in Lgr5 mRNA expression level in tumor at 30 mg/kg, ip QD by qRT-PCR analysis
# CT26 [14] = experiment: Antitumor activity against mouse CT26 cells xenografted in BALB/c mouse assessed as tumor growth inhibition at 30 mg/kg, ip QD and measured upto 9 days; assay type: functional; settings: CT26, 216 h, time <= 9 day, read-out: TGI
# [15] = Tmax in Sprague-Dawley rat at 21 mg/kg, ip and measured upto 24 hrs by LC-MS analysis; assay type: ADME, organism-based; settings: in vivo
# CT26 [16] = experiment: Antitumor activity in mouse CT26 cells xenografted in BALB/c mouse assessed as increase in granzyme B-positive CD8+ T cell infiltration into tumor at 30 mg/kg, ip QD by flow cytometry; assay type: functional, organism-based
# [17] = Toxicity in BALB/c mouse xenografted with mouse CT26 cells assessed as pathological changes in bone marrow at 30 mg/kg, ip QD by hematoxylin and eosin staining based microscopic analysis; assay type: organism-based; settings: in vivo
# CT26 [18] = experiment: Induction of apoptosis in Wnt-dependent mouse CT26 cells assessed as early apoptotic cells at 10 uM incubated for 24 hrs by Annexin V-Alexa Fluor 647/PI staining based flow cytomtery (Rvb=18.3%); assay type: functional
# CT26 [19] = experiment: Antitumor activity in mouse CT26 cells xenografted in BALB/c mouse assessed as increase in Cd8 mRNA expression level in tumor at 30 mg/kg, ip QD by qRT-PCR analysis; assay type: functional, organism-based
# [20] = Toxicity in BALB/c mouse xenografted with mouse CT26 cells assessed as body weight loss at 30 mg/kg, ip QD and measured upto 9 days in presence of anti-PD-1 antibody cotreatment at 10 mg/kg,ip BIW; assay type: organism-based; settings: in vivo, 216 h, time < 9 day
# HEK293 [21] = experiment: Induction of apoptosis in Wnt-independent human HEK293 cells assessed as early apoptotic cells at 10 uM incubated for 24 hrs by Annexin V-Alexa Fluor 647/PI staining based flow cytomtery (Rvb=17.4%); assay type: functional
# HEK293 [22] = experiment: Induction of apoptosis in Wnt-independent human HEK293 cells assessed as viable cells at 10 uM incubated for 24 hrs by Annexin V-Alexa Fluor 647/PI staining based flow cytomtery (Rvb=70.5%); assay type: functional; settings: read-out: Activity
structure (smiles),measurement,setting,value
CC(C)c1ccc(-c2cccc(S(=O)(=O)N3CCCC(c4cccc(OC(C)(C)C(=O)NS(=O)(=O)c5ccc(C(F)(F)F)cc5)c4)C3)c2)cc1 (configuration not stated),half-life,[1],69 min
same,Activity,HEK293 [2],inactive
same,Activity,HEK293 [3],17%
same,Activity,CT26 [4],Active
same,Activity,CT26 [5],28%
same,viability at 20 µM,HEK293 [6],64.7%
same,Activity,[7],Non-Toxic
same,Activity,CT26 [8],Active
same,Activity,HCT-116 [9],21.5%
same,Activity,[10],Non-Toxic
same,Activity,HCT-116 [11],Non-Toxic
same,microsomal CLint,[12],43.2 µL/min/mg
same,inhibition,CT26 [13],Active
same,inhibition in vivo at 30 mg/kg,CT26 [14],67.6%
same,Tmax,[15],30 min
same,Activity,CT26 [16],Active
same,Activity,[17],Non-Toxic
same,Activity,CT26 [18],24%
same,Activity,CT26 [19],Active
same,Activity,[20],Non-Toxic
same,Activity,HEK293 [21],12.1%
same,viability at 10 µM,HEK293 [22],70.8%
